Consider four compounds from ChEMBL document CHEMBL1201862, “PubChem BioAssay data set” (2004).

Test systems include SNB-75; SF-539; SK-OV-3; A498; CCRF-CEM; SF-268; HCC 2998; IGROV-1; OVCAR-4; HOP-62; RPMI-8226; A549; HCT-15; OVCAR-8; T47D; NCI-H23; KM-20L2; NCI-H460; SR; HOP-92.
Common to all, as to assay: NCI anticancer screen, dose series, 48 h

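Following 48 hours of exposure in 96-well plates, responses at five concentrations were used to interpolate endpoints linearly. The concentration for 50% growth inhibition is given as GI50.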 Active and inactive are the calls of the source. Cut-off read from the data, not from the text of the source: active = GI50 up to about 1.1 µM and inactive = higher. A value given as a limit tells only on which side of the number the result lay.

On to `O=C1NC(=O)C2C3C=CC(C12)C1C2C(=O)NC(=O)C2C31` (stereo not drawn), for which the GI50 in the experiment on SNB-75 is 197 µM (inactive); in the experiment with SF-539 it was 191 µM (inactive); with SK-OV-3, 98.6 µM (inactive); in the experiment with A498 it was 158 µM (inactive); with CCRF-CEM, 54.8 µM (inactive); in the experiment with SF-268, > 250 µM (inactive). Besides, the GI50 in the experiment with HCC 2998 was 221 µM (inactive); with IGROV-1, 186 µM (inactive); in the experiment on OVCAR-4, 223 µM (inactive); in the experiment with HOP-62 it was 74.3 µM (inactive); in the experiment on RPMI-8226, 185 µM (inactive); in the experiment on A549 it was 93.8 µM (inactive). Moreover, the GI50 was 237 µM with HCT-15; 203 µM (inactive) in the experiment on OVCAR-8; > 250 µM (inactive) in the experiment with T47D; 245 µM (inactive) in the experiment on NCI-H23; 208 µM (inactive) in the experiment on KM-20L2; 53.7 µM (inactive) in the experiment on NCI-H460. The GI50 with SR was 135 µM (inactive); in the experiment with HOP-92, 128 µM (inactive).

For the compound `O=C1C(NCCO)=C(N2CC2)C(=O)C(NCCO)=C1N1CC1`, the GI50 in the experiment on SNB-75 was 63.8 µM (inactive); in the experiment with SF-539 it was 39.4 µM (inactive); in the experiment with SK-OV-3, > 70.6 µM (inactive); with A498, > 100 µM (inactive); in the experiment on CCRF-CEM, 17.9 µM (inactive); in the experiment with SF-268 it was 30.8 µM (inactive). In addition, the GI50 was > 100 µM (inactive) in the experiment on HCC 2998; > 97.5 µM (inactive) in the experiment with IGROV-1; > 57.4 µM (inactive) in the experiment on OVCAR-4; 27.4 µM (inactive) in the experiment on HOP-62; 44.6 µM (inactive) in the experiment with RPMI-8226; 44.5 µM (inactive) with A549. Besides, the GI50 in the experiment on HCT-15 was 57.5 µM; in the experiment with OVCAR-8 it was 37.1 µM (inactive); in the experiment with T47D it was > 69.2 µM (inactive); with NCI-H23 it was 29.2 µM (inactive); with KM-20L2 it was > 100 µM (inactive); with NCI-H460, 10.2 µM (inactive). Also, the GI50 with SR is 16.8 µM (inactive); with HOP-92, > 73.1 µM (inactive).

Regarding `CC(=O)C1Cn2c(=O)c3cc4ccccc4cc3c(=O)n2C=C1C` (stereo not drawn), the GI50 was 67.8 µM (inactive) in the experiment with SNB-75; > 100 µM (inactive) with SF-539; > 100 µM (inactive) in the experiment on SK-OV-3; 43.5 µM (inactive) with A498; > 100 µM (inactive) in the experiment on CCRF-CEM; > 100 µM (inactive) in the experiment with SF-268. The GI50 with HCC 2998, with IGROV-1, with OVCAR-4, in the experiment on HOP-62, in the experiment with RPMI-8226 and in the experiment on A549 was > 100 µM (inactive) throughout. The GI50 in the experiment on HCT-15 is 76.7 µM; in the experiment on OVCAR-8, > 100 µM (inactive); in the experiment on NCI-H23, > 100 µM (inactive); in the experiment on KM-20L2, > 100 µM (inactive); in the experiment with NCI-H460 it was 97.9 µM (inactive); in the experiment with SR it was > 100 µM (inactive). For the same compound, in the experiment on HOP-92, the GI50 is 61.2 µM (inactive).

As for `CCCC1C[C@H]2CCCCN2[C@H]2CCCN12` (stereo partly drawn), the GI50 was > 100 µM (inactive) with SNB-75; > 100 µM (inactive) in the experiment on SF-539; > 100 µM (inactive) with SK-OV-3; > 100 µM (inactive) in the experiment with A498; > 45.9 µM (inactive) in the experiment with CCRF-CEM; > 100 µM (inactive) with SF-268. The GI50 in the experiment with HCC 2998 was > 100 µM (inactive); in the experiment on IGROV-1, > 100 µM (inactive); in the experiment on OVCAR-4, > 100 µM (inactive); with HOP-62, > 100 µM (inactive); in the experiment on RPMI-8226, > 43.4 µM (inactive); in the experiment on A549, > 87.1 µM (inactive). For the same compound, the GI50 is greater than 46.7 µM with HCT-15; > 100 µM (inactive) in the experiment on OVCAR-8; > 100 µM (inactive) in the experiment with NCI-H23; > 88.3 µM (inactive) in the experiment on KM-20L2; > 66.4 µM (inactive) in the experiment with NCI-H460; > 40.6 µM (inactive) with SR. Also, the GI50 in the experiment on HOP-92 was > 100 µM (inactive).
